Calls of active or inactive are those of the source. The calls are words filed in the database; no cut-off is given here.
Columns and labels:
D(2) dopamine receptor = D(2) dopamine receptor (Rattus norvegicus, UniProt P61169); test: Displacement of [3H]spiperone from dopamine D2 receptor in rat striatal membranes; assay type: cell membranes, Membrane
D(3) dopamine receptor = D(3) dopamine receptor (Rattus norvegicus, UniProt P19020); test: Displacement of [3H]spiperone from rat dopamine D3 receptor expressed in Sf9 cells
Rattus norvegicus [1] = test: Antipsychotic activity in orally dosed Wistar rat assessed as inhibition of conditioned avoidance response after 1 hr; assay type: functional; settings: po
Rattus norvegicus [2] = test: Catalepsy in orally dosed Wistar rat after 30 mins; assay type: functional
[3] = Bioavailability in rat at 10 mg/kg; assay type: ADME, organism-based; settings: in vivo
Mus musculus = test: Antipsychotic activity in orally dosed CD1 mice assessed as inhibition of […] induced climbing behavior; settings: CD1, po
[4] = Cmax in orally dosed rat brain; assay type: ADME, organism-based; set-up: route oral; settings: po
[5] = Tmax in orally dosed rat brain; assay type: ADME, organism-based; settings: po
[6] = biological target: D(2) dopamine receptor (Homo sapiens) (UniProt P14416); test: Antagonistic activity at human D2 expressed in CHO cells by [35S]GTP-gamma-S binding assay; assay type: functional, cell-based
[7] = biological target: D(3) dopamine receptor (Homo sapiens) (UniProt P35462); test: Antagonistic activity at human D3 receptor expressed in CHO cells by [35S]GTP-gamma-S binding assay; assay type: functional, cell-based
Sequence of D(3) dopamine receptor (Homo sapiens) (P35462 whole entry): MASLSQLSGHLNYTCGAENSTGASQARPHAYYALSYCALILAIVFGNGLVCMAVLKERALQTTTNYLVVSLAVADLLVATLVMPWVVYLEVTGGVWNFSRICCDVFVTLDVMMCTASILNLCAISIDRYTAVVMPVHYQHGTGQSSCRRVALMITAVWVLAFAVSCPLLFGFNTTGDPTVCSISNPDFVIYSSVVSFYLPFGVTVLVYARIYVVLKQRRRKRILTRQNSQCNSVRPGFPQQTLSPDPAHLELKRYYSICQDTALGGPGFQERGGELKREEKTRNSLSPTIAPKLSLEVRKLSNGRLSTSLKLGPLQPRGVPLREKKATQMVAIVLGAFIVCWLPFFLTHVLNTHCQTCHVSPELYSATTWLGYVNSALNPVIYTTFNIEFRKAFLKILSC

Sequence of D(3) dopamine receptor (P19020 whole entry): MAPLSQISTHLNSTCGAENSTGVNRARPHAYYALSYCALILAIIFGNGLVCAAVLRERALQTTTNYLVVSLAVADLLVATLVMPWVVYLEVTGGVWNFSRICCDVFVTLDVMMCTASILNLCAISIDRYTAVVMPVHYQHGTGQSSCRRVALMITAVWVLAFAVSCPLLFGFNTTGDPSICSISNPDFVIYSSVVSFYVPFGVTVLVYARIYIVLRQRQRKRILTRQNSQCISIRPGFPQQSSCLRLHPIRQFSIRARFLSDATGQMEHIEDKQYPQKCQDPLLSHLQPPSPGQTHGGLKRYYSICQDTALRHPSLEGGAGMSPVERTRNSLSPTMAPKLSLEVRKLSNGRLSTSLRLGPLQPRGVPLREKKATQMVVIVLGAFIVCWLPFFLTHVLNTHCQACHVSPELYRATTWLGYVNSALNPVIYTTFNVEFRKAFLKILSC
Sequence of D(2) dopamine receptor (P61169 whole entry): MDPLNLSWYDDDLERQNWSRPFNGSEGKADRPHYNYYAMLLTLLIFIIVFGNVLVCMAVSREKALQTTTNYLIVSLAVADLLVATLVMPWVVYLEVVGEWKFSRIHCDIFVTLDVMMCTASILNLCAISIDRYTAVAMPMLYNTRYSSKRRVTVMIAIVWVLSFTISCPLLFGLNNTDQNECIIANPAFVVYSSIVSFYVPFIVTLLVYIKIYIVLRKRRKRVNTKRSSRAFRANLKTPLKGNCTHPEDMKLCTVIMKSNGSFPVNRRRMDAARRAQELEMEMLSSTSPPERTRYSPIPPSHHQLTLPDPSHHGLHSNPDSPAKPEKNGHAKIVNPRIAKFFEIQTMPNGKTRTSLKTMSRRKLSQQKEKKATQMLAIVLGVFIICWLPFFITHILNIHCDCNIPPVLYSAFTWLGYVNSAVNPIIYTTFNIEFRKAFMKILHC
Sequence of D(2) dopamine receptor (Homo sapiens) (P14416 whole entry): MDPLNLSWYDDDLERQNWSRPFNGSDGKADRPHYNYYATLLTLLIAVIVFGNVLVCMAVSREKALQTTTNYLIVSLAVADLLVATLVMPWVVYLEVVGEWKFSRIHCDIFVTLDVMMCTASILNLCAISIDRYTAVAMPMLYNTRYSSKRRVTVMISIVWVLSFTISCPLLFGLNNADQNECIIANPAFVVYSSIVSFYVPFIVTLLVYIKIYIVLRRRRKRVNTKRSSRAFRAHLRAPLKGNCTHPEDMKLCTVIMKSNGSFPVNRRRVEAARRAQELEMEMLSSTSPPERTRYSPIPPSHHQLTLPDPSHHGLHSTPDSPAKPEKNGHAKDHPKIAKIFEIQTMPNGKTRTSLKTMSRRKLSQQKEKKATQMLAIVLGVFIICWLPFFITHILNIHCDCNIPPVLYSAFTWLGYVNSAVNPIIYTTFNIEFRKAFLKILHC

IC50 (D(2) dopamine receptor) [nM] | IC50 (D(3) dopamine receptor) [nM] | Structure (SMILES) | also measured
41 | 3.8 | O=S(=O)(N[C@H]1CC[C@H](CCN2CCC(Cc3cccc(C(F)(F)F)c3)CC2)CC1)c1ccc(Cl)cc1 | 
9 | 2 | O=S(=O)(N[C@H]1CC[C@H](CCN2CCC(Nc3cc(Cl)ccc3Cl)CC2)CC1)c1ccc(F)cc1 | 
57 | 0.7 | COc1ccc(S(=O)(=O)N[C@H]2CC[C@H](CCN3CCN(c4cccc(C#N)c4)CC3)CC2)cc1OC | 
30 | 0.7 | N#Cc1cc(N2CCN(CC[C@H]3CC[C@H](NS(=O)(=O)c4ccc5c(c4)CCC(=O)N5)CC3)CC2)cc(C(F)(F)F)c1 | 
 |  | O=C1CCc2ccc(OCCCCN3CCN(c4cccc(Cl)c4Cl)CC3)cc2N1 [ARIPIPRAZOLE] | ED50 (Rattus norvegicus [1]): 17.9 mg/kg
26 | 3.3 | N#Cc1cc(N2CCN(CC[C@H]3CC[C@H](NS(=O)(=O)c4ccc(Br)cc4)CC3)CC2)cc(C(F)(F)F)c1 | 
28 | 0.5 | COc1ccc(S(=O)(=O)N[C@H]2CC[C@H](CCN3CCN(c4ccc(Br)cc4OC)CC3)CC2)cc1 | 
24 | 0.4 | N#Cc1cc(N2CCN(CC[C@H]3CC[C@H](NS(=O)(=O)c4cccnc4)CC3)CC2)cc(C(F)(F)F)c1 | MED (Rattus norvegicus [2]): >200 mg/kg; bioavailability [3]: 55%; ED50 (Mus musculus): 22 mg/kg; Cmax [4]: 921 ng/mL; ED50 (Rattus norvegicus [1]): 11.6 mg/kg; Tmax [5]: 1 h; Activity [6]: Active; Activity [7]: Active
39 | 0.9 | CC(=O)Nc1ccc(S(=O)(=O)N[C@H]2CC[C@H](CCN3CCN(c4cc(C#N)cc(C(F)(F)F)c4)CC3)CC2)cc1 | 
 |  | Cc1cc2c(s1)Nc1ccccc1N=C2N1CCN(C)CC1 [OLANZAPINE] | ED50 (Rattus norvegicus [1]): 3.9 mg/kg
23 | 5.8 | N#Cc1cc(N2CCN(CC[C@H]3CC[C@H](NS(=O)(=O)c4cccc(C#N)c4)CC3)CC2)cc(C(F)(F)F)c1 | 
39 | 4.2 | Cc1ccc(S(=O)(=O)N[C@H]2CC[C@H](CCN3CCN(c4cc(C#N)cc(C(F)(F)F)c4)CC3)CC2)cn1 | 

Structure (SMILES) | IC50 (D(2) dopamine receptor) [nM] | IC50 (D(3) dopamine receptor) [nM] | also measured
O=S(=O)(N[C@H]1CC[C@H](CCN2CCN(c3cccc(Cl)c3Cl)CC2)CC1)c1cccnc1 | 4 | 0.2 | 
O=C1COc2ccc(S(=O)(=O)N[C@H]3CC[C@H](CCN4CCC(Oc5cccc(C(F)(F)F)c5)CC4)CC3)cc2N1 | 5.3 | 1 | 
O=S(=O)(N[C@H]1CC[C@H](CCN2CCC(Cc3cccc(C(F)(F)F)c3)CC2)CC1)c1cc2ccccc2s1 | 91 | 2.6 | 
O=S(=O)(N[C@H]1CC[C@H](CCN2CCC(Cc3cccc(C(F)(F)F)c3)CC2)CC1)c1ccc(-n2cccn2)cc1 | 4.3 | 0.5 | 

Reference: ChEMBL document CHEMBL1149708, “Novel sulfonamides having dual dopamine D2 and D3 receptor affinity show in vivo antipsychotic efficacy with beneficial cognitive and EPS profile” (Bioorg Med Chem Lett, 2007)
